# Results published in article PMC9334755 (Cancer Biology & Medicine, 2021).
# Like-named read-outs stand apart in the source and are kept apart here.
# Columns and labels:
# PTK6 = PTK6 (Homo sapiens, UniProt Q13882); experiment: Protein kinase panel at 1 µM, PTK6; format: biochemical
# human peripheral T cells = experiment: CD69 up-regulation in T cells after anti-CD3/CD28 stimulation; format: cell-based
# Description: (§1) CD19^+ B (>80% purity) and CD3^+ T (>90% purity) cells were purified with human B cell enrichment cocktail and human T cell enrichment cocktail (Stem Cell Technology), respectively. Cells were seeded on 12-well plates and incubated with different concentrations of BTK inhibitors for 1 h. B cells were stimulated with 50 µg/mL anti-human IgM F(ab′)2, and T cells were stimulated with 50 µg/mL anti-CD3/CD28 beads overnight. In the washout groups, the cell medium containing the indicated inhibitors was replaced with fresh medium before stimulation. Then cells were then incubated with anti-human CD69 for 1 h and analyzed with a Guava flow cytometer.
# Figure 4 SY-1530 blocks B-cell receptor signaling and induces apoptosis. (A–D) Human B and T cells were purified and incubated with different concentrations of BTK inhibitors for 1 h. B cells were stimulated with 50 μg/mL anti-human IgM F(ab′)2, and T cells were stimulated with 50 μg/mL anti-CD3/CD28 beads overnight directly or after washout of BTK inhibitors before stimulation. The percentage of CD69 positive cells was analyzed by flow cytometry. Data are shown as the mean ± SEM (n = 3). Statistical analysis was performed with Student’s t-test (*P < 0.05, **P < 0.01, ***P < 0.001). (E) Pfeiffer cells and Romas cells were preincubated with different concentrations of compounds for 1 h, washed with PBS, and then stimulated with anti-IgM/anti-IgG (10 μg/mL) for 10 min. Cells were lysed and analyzed by Western blot with the indicated antibodies. (F) Pfeiffer cells were treated with various concentrations of SY-1530 for 24 h. The cells were stained with both PE-Annexin and 7-AAD and analyzed by flow cytometry. Data are shown as the mean ± SEM (n = 3). Statistical analysis was performed with Student’s t-test (*P < 0.05, **P < 0.01). (G) Pfeiffer cells were incubated with BTK inhibitors in the presence of z-VAD-fmk (caspase inhibitor) or DMSO for 24 h. Cells were lysed and analyzed with specific antibodies.
# Pfeiffer = experiment: Cell viability assay (CellTiter-Blue), Pfeiffer; format: cell-based, human; conditions: Pfeiffer cells; read-out: IC50 (nM), growth of Pfeiffer
# Description: (§2) Cells were seeded on 96-well plates (9,000 cells/well), cultured at 37 °C in 5% CO2 overnight, and incubated with different concentrations of compounds for 3 or 7 days. Then the cells were stained with CellTiter-Blue® reagent (Promega) for 4 h at 37 °C. The fluorescence signals were detected with a FlexStation 3, and the IC50 values of each compound were determined with GraFit software (Version 6.0).
# TEC = TEC (Homo sapiens, UniProt P42680); experiment: HTRF kinase assay, TEC
# Sequence of TEC (P42680 whole entry): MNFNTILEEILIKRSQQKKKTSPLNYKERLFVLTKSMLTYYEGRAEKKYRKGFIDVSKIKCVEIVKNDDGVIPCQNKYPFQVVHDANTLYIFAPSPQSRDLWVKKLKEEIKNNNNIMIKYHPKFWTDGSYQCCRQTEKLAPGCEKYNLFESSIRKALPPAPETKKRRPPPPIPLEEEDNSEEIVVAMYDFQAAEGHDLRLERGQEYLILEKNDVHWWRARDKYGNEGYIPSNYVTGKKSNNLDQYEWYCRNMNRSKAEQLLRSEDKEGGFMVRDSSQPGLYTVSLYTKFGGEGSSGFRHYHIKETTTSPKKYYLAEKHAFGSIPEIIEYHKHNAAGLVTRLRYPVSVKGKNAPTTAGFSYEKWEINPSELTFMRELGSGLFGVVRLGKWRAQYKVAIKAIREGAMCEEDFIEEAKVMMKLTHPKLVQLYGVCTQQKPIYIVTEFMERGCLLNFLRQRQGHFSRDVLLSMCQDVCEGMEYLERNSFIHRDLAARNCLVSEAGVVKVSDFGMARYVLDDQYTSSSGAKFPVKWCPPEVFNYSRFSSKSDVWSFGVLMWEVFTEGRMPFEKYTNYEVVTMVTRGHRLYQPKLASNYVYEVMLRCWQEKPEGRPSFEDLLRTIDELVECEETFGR
# Description: Homogeneous time-resolved fluorescence (HTRF) assays were performed with a HTRF® KinEASE™-TK kit (Trevigen).
# TMD8 xenografts = experiment: TMD8 tumor xenograft in SCID mice; format: in vivo
# Description: TMD8 cells (1.0 × 10^7 cells in 100 µL of serum-free medium containing 40% Matrigel) were injected subcutaneously into SCID mice (6–8 weeks of age), and the tumor volume was monitored twice per week. […] The compounds were formulated in 0.5% methylcellulose containing 0.1% sodium lauryl sulfate. Tumor size and body weight were measured twice per week. All experiments were approved by the institutional animal care and use committee of Shouyao Holdings and were performed in accordance with the guidelines in the U.S. National Institutes of Health Guide for the Care and Use of Laboratory Animals (Approval No. CTA-2015063).
# Figure 5 SY-1530 inhibits B-cell malignancy in vivo. (A–D) TMD8 cells were injected subcutaneously into SCID mice (6–8 weeks of age; 8 mice per group). […] Tumor size (A) and body weight (B) were measured […]. On the last day, mice were sacrificed 2.5 h after administration. LC-MS/MS was performed to measure the concentration of SY-1530 in plasma (C), and tumor samples were collected and analyzed with Western blot (D). QD represents administration once daily. Data are shown as mean ± SEM. Statistical analysis was performed with two-way analysis of variance (*P < 0.05; **P < 0.01; ***P < 0.001). […] Tumor size (E), body weight (F), SY-1530 concentration in the plasma (G), and protein expression in tumors (H) were measured. Data are shown as mean ± SEM. Statistical analysis was performed with two-way analysis of variance (*P < 0.05; **P < 0.01; ***P < 0.001).
# ABL1 = ABL1 (Homo sapiens, UniProt P00519); experiment: Protein kinase panel at 1 µM, ABL1; format: biochemical
# Sequence of ABL1 (P00519 whole entry): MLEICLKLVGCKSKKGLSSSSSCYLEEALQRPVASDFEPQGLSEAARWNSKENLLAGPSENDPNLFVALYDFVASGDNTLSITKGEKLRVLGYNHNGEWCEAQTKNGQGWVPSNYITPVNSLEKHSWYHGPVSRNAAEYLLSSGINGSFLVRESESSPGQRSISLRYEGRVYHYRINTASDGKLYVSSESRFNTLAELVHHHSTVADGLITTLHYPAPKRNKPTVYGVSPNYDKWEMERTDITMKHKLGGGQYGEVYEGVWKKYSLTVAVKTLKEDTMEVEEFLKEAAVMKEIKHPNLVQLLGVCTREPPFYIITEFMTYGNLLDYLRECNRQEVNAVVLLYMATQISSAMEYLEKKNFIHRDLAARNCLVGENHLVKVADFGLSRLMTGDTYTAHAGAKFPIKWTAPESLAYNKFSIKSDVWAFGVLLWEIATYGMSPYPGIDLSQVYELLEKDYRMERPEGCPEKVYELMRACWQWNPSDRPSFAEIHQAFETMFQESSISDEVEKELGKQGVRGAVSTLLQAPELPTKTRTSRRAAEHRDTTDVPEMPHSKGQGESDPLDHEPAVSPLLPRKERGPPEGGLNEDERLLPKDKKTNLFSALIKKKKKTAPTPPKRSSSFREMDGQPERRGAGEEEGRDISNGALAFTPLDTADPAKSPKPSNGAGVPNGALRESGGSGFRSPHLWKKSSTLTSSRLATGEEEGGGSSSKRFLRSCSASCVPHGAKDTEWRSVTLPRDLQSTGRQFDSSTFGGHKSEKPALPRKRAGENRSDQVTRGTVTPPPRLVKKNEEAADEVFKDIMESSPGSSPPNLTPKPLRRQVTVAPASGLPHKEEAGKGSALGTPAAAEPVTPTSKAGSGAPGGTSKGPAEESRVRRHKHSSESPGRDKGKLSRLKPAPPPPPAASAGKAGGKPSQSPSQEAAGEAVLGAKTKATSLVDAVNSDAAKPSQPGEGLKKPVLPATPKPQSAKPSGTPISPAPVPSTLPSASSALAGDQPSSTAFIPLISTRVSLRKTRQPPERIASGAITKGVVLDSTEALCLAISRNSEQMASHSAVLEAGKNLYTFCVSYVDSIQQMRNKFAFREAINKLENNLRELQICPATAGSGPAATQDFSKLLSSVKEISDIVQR
# FLT1 = FLT1 (Homo sapiens, UniProt P17948); experiment: Protein kinase panel at 1 µM, FLT1; format: biochemical
# [1] = human
# T cell = experiment: Cell viability assay (CellTiter-Blue), human T cells; format: cell-based; conditions: read-out: IC50 (nM), growth of T cell
# Description: as §2, §1
# FRK = FRK (Homo sapiens, UniProt P42685); experiment: Protein kinase panel at 1 µM, FRK; format: biochemical
# Sequence of FRK (P42685 whole entry): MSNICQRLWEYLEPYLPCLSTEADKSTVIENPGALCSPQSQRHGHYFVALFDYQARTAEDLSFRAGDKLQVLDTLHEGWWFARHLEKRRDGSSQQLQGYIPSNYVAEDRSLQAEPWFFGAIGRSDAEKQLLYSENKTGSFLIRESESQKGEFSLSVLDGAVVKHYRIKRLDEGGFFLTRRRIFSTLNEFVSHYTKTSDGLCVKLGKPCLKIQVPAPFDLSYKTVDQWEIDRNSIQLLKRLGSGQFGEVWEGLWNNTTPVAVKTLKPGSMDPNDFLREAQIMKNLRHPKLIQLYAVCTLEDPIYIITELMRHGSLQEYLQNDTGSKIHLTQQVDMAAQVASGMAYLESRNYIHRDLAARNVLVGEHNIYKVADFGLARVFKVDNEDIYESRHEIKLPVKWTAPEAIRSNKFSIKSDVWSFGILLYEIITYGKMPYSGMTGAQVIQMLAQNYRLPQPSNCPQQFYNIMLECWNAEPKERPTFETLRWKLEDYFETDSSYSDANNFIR
# [2] = dog
# BTK = BTK (Homo sapiens, UniProt Q06187); experiment: LC-MS/MS of free inhibitor after incubation with BTK; format: binding
# Sequence of BTK (Q06187 whole entry): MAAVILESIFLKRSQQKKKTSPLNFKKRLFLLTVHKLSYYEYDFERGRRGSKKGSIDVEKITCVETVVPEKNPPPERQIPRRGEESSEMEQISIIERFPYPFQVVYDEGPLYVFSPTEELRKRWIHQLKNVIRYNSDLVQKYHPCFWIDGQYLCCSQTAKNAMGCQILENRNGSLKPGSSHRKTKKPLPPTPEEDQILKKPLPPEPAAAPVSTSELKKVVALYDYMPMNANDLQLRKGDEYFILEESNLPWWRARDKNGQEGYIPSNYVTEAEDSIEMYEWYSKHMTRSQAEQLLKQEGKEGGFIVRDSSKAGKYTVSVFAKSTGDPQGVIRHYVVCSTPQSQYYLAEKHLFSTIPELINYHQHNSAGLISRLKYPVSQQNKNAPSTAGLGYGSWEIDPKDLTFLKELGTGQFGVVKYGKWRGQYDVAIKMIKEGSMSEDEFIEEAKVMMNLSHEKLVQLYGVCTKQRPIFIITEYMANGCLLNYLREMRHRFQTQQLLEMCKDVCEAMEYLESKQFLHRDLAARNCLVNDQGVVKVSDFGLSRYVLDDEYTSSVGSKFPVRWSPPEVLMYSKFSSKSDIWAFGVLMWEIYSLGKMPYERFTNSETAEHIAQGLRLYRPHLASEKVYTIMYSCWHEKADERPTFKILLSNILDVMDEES
# Description: In addition, after incubation of BTK with the inhibitors for 4 h, we performed liquid chromatography-tandem mass spectrometry (LC-MS/MS) to detect the abundance of the inhibitors.
# (A) The compounds were incubated with BTK for 2 h, after which HTRF assays were performed with dilution of the mixture. The reactions were stopped at different time points. Data are shown as the mean ± SEM. (B) The content of the compounds was measured with LC-MS/MS after incubation with BTK for 4 h. Data are shown as the mean ± SEM (n = 3). Statistical analysis was performed with Student’s t-test (***P < 0.001). […] Cells were lysed and analyzed by Western blot and fluorescent gel scanning.
# Data are shown as the mean ± SEM. […] Data are shown as the mean ± SEM of 3 independent experiments. Statistical analysis was performed with Student’s t-test (**P < 0.01, ***P < 0.001). […] Cells were lysed and then analyzed by Western blot and fluorescent gel scanning. […] Cells were lysed and analyzed by Western blot and fluorescent gel scanning.
# RET = RET (Homo sapiens, UniProt P07949); experiment: Protein kinase panel at 1 µM, RET; format: biochemical
# Sequence of RET (P07949 29-1114): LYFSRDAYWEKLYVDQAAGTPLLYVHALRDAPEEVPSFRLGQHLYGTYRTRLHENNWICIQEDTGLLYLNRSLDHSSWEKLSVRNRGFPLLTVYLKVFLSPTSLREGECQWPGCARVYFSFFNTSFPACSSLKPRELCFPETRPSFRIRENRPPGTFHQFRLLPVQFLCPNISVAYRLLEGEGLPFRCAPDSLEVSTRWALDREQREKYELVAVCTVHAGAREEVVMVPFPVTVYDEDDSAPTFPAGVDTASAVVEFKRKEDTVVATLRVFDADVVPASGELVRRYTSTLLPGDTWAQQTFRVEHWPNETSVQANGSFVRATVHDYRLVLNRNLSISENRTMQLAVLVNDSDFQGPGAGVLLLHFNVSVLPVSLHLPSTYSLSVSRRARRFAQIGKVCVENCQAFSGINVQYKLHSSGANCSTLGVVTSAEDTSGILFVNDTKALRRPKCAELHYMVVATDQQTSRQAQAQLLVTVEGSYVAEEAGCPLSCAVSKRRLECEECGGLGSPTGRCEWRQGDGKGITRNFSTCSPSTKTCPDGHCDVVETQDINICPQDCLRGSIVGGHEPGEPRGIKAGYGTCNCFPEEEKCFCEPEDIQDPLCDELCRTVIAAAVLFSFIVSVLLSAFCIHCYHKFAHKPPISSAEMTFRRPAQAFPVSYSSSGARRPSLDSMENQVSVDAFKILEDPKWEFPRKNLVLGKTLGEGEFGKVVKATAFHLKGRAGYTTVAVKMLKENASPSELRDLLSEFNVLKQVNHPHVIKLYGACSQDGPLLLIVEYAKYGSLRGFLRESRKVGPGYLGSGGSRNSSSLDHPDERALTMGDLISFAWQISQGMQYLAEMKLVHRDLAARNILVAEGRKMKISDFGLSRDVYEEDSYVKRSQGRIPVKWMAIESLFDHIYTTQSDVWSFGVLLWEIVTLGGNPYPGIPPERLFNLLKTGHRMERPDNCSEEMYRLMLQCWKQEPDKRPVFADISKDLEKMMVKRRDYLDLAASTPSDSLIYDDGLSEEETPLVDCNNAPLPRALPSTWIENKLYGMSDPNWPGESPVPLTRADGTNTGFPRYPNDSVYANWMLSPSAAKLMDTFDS
# FYN = FYN (Homo sapiens, UniProt P06241); experiment: Protein kinase panel at 1 µM, FYN; format: biochemical
# Sequence of FYN (P06241 whole entry): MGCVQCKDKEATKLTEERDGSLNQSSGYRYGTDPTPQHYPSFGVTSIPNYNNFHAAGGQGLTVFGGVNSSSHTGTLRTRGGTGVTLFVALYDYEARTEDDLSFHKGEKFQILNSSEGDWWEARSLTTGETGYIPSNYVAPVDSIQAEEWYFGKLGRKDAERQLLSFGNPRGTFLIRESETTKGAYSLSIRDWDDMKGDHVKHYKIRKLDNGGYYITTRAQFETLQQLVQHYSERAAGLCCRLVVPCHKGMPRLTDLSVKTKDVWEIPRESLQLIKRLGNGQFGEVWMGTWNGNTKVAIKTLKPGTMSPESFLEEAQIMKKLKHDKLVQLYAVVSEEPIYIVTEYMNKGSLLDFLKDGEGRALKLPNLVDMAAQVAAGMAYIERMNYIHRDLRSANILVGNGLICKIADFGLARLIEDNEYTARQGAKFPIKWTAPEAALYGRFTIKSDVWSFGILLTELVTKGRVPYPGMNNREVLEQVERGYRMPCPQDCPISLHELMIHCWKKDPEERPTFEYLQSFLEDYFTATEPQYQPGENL
# Sequence of PTK6 (Q13882 whole entry): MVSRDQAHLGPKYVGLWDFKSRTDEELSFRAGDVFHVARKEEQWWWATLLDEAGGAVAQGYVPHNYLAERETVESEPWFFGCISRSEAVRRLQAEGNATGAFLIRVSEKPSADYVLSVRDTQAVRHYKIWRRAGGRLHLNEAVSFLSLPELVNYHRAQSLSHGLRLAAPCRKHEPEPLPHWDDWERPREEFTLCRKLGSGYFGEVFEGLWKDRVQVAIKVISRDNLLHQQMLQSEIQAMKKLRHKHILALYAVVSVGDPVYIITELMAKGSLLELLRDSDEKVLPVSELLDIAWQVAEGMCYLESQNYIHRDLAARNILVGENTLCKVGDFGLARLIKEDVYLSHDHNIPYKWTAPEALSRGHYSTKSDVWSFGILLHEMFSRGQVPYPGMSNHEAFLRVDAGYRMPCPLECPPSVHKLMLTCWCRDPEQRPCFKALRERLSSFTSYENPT
smiles,measurement,setting,value
COC/C=C/C(=O)N1CC[C@@H](n2nc(-c3ccc(Oc4ccccc4)cc3)c(C(N)=O)c2N)C1 [SY-1530],"Inhibition (%), PTK6",PTK6,92%
same,Up-regulation of CD69 in T cells,human peripheral T cells; after washout of BTK inhibitors,not affected
same,CD69 up-regulation after T cell receptor stimulation,"human peripheral T cells; continuous exposure, 10 µM",slightly inhibited
same,IC50,Pfeiffer,71.4 nM
same,"Ratio, TEC",TEC; IC50 SY-1530 over IC50 ibrutinib,1.3
same,IC50,"TEC; read-out: IC50 (nM), TEC, HTRF",10.4 nM
same,Inhibitory potency on tumor growth,TMD8 xenografts; 30 mg/kg BID,better inhibitory potency on tumor growth than the same dose of ibrutinib
same,Anti-tumor activity,TMD8 xenografts; 30 mg/kg QD,comparable to that of ibrutinib at 100 mg/kg
same,Inhibitory potency on tumor growth,"TMD8 xenografts; 100 mg/kg QD, versus ibrutinib 100 mg/kg QD",better inhibitory potency on tumor growth than ibrutinib
same,Mouse bodyweight,TMD8 xenografts; BID groups,moderate decrease
same,Tumor growth versus vehicle treated group,"TMD8 xenografts; BID, SY-1530 30 or 10 mg/kg, ibrutinib 30 mg/kg",dramatically lower
same,Bodyweights of mice,TMD8 xenografts; QD groups,moderately changed
same,Concentration in plasma,"TMD8 xenografts; QD groups, 2.5 h after administration on the last day",higher than those of ibrutinib
same,Tumor volume,"TMD8 xenografts; oral, QD, 29 days",significant decrease in tumor volumes
same,"Inhibition (%), ABL1",ABL1,8%
same,"Inhibition (%), FLT1",FLT1,33%
same,Plasma protein binding (%),[1],95.6%
same,IC50,T cell,> 10000 nM
same,"Inhibition (%), FRK",FRK,72%
same,Plasma protein binding (%),[2],95.5%
same,Incubation time to saturation of covalent binding to BTK kinase,BTK,30 min
same,Decrease of free inhibitor after incubation with BTK,BTK; 4 h incubation,more than 80%
same,"Inhibition (%), RET",RET,57%
same,"Inhibition (%), FYN",FYN,87%
